Assay results published in patent publication US20080279856A1, “Inhibition of Bradykinin Release” (Novo Nordisk Pharmaceuticals, Inc., priority 1999, published 2008).
Changes are numbered by the printed parent chain. Names may count otherwise. Blank lines part the entries; values can stand above or below the molecule they belong to.

Legend:
[1] = test system: HBP-induced increase in EC permeability; assay: Inhibition of HBP-induced increase in EC permeability; format: cell-based, human, bovine; details: aprotinin 100 μg/ml, 30 min pre-incubation; HBP 75 μg/ml; N=6
Text: Alternatively, HBP antagonists may be detected by culturing endothelial cells in the presence of HBP and in the presence and absence of a substance suspected of being an antagonist. In a specific embodiment, the antagonist is a monoclonal antibody that binds to at least one epitope of HBP, preferably human HBP, wherein said epitope binds to prekallikrein-H-kininogen complex and activates release of bradykinin. In a preferred embodiment, the monoclonal antibody is a human monoclonal antibody. In one embodiment, the antibody and HBP are preincubated together before incubating with endothelial cells for about 10 minutes at 37° C. The effect of the substance on the permeability of endothelial cells is determined by measuring transendothelial electrical resistance or determining albumin clearance as described in the Examples, infra. A decrease in permeability would indicate that the substance does act as an HBP antagonist.
For measurement of electrical resistance across the EC monolayer, the filter insert is transferred to a resistance measurement chamber (ENDOHM-12; World Precision Instruments, Sarasota, Fla., USA) modified so as to assure exact positioning of the electrodes in relation to each other and to the filter insert during repeated measurements. The chamber (lower compartment) and the filter insert (upper compartment) are filled with 2 ml and 400 μl culture medium, respectively. […] Direct readings of the electrical resistance are given by an ohmmeter (EVOM; World Precision Instruments, Sarasota, Fla., USA) connected to the electrodes of the resistance chamber. The electrical resistance of individual EC monolayers is obtained by subtracting the resistance of the corresponding naked filter coated with Biomatrix as measured prior to seeding of the endothelial cells.
Evans blue dye-conjugated albumin (EBA) is used as a marker for macromolecular permeability of the EC monolayers. […] In experiments where albumin permeability is analyzed, the culture medium in the upper compartment is exchanged for medium containing EBA. […]

HBP mutant (G175N) = molecular target: T1, HBP mutant (G175N) (Homo sapiens, UniProt P20160, G201N); assay: Aprotinin effect on leakage induced by HBP mutant (G175N); format: cell-based; details: leakage model
T1 sequence (P20160 27-248 G201N): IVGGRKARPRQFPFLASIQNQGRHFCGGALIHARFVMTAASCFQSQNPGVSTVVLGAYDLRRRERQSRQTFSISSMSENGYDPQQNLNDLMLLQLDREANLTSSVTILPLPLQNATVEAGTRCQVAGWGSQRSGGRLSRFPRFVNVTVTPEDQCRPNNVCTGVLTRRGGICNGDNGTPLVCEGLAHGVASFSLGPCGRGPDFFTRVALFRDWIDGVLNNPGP

[2] = test system: bradykinin-induced increase in EC permeability; assay: Inhibition of bradykinin-induced increase in EC permeability; format: cell-based, human, bovine; details: aprotinin 100 μg/ml; subsequent bradykinin 100 nM
Experimental: For measurement of electrical resistance across the EC monolayer, the filter insert is transferred to a resistance measurement chamber (ENDOHM-12; World Precision Instruments, Sarasota, Fla., USA) modified so as to assure exact positioning of the electrodes in relation to each other and to the filter insert during repeated measurements. The chamber (lower compartment) and the filter insert (upper compartment) are filled with 2 ml and 400 μl culture medium, respectively. All measurements are made at 37° C. with the equipment placed in a cell culture incubator. Direct readings of the electrical resistance are given by an ohmmeter (EVOM; World Precision Instruments, Sarasota, Fla., USA) connected to the electrodes of the resistance chamber. The electrical resistance of individual EC monolayers is obtained by subtracting the resistance of the corresponding naked filter coated with Biomatrix as measured prior to seeding of the endothelial cells.
Before transferring the filter inserts to the resistance measurement chamber (kept at 37° C.), the medium in the insert and in the chamber is replaced with fresh culture medium (37° C.) supplemented with 10 mM Hepes. HBP (25-100 μg/ml) or PMN secretion product is added either to the upper or the lower compartment and change in transendothelial electrical resistance is measured every minute until a plateau phase is reached, and thereafter at 5-min intervals. In separate experiments, PMNs (2×10^6) preincubated with mAb IB4 (10 μg/ml) are added to the upper compartment (PMN:EC ratio=10:1) and allowed to sediment for 10 min. Activation of the PMNs is induced through antibody crosslinking of leukocytic CD18 by addition of goat anti-mouse IgG F(ab′)2 diluted 1:20. In experiments where albumin permeability across the EC monolayer is studied, the medium in the insert contained EBA. During the experiment, the filter insert is moved at 5-10 min intervals to new wells containing fresh medium. All incubations are made at 37° C. After the experiment, the medium in the lower wells is aspirated and analyzed for EBA content.

[3] = 3H-LPS binding to HBP, scintillation proximity assay; details: up to 50 mM unlabeled BPTI
Experimental: The affinity for lipopolysaccharide (3H-LPS) is measured by scintillation proximity assay technology (SPA) as described (Linde, V., Bjørn, S., Kastrup, J. S., and Flodgaard, H., 2000, Biotechniques 28:218-222). All samples are repeated in triplicates.

[4] = after cardiac operations; cited from earlier work
[5] = test system: kallikrein-C1-inhibitor and C1-C1-inhibitor complexes; details: cited from earlier work
HBP = molecular target: T2, HBP (Homo sapiens, UniProt P20160); details: cited from earlier work
T2 sequence (P20160 27-248): T1 sequence (P20160 27-248 G201N) with N175G

endothelial cell = details: hypoxic cold storage in organ preservation solutions; cited from earlier work
vascular permeability = details: cited from earlier work
EC permeability = assay: Leakage model: bradykinin release and EC permeability induced by HBP variants; format: cell-based
aprotinin = aprotinin (Bos taurus, UniProt P00974); assay: Ability of HBP variants to bind aprotinin; format: binding

- effect of aprotinin on mutant-induced leakage (HBP mutant (G175N)): no inhibitory effect
- competition for 3H-LPS binding to native HBP [3]: no inhibitory effects
Molecule: aprotinin
- effect on HBP-induced increase in EC permeability [1]: largely prevented
- effect on bradykinin-induced permeability change [2]: but not the permeability change induced by subsequent administration of bradykinin
- blood loss [4]: reduces blood loss
- postoperative bleeding time [4]: decreases the elevated postoperative bleeding time
- kallikrein-C1-inhibitor and C1-C1-inhibitor complexes [5]: decrease
- Kd (HBP): 100 nM
- endothelial cell viability (endothelial cell): increases endothelial cell viability
- vascular permeability and neutrophil count (vascular permeability): decreased this vascular permeability and neutrophil count

- ability to bind aprotinin (aprotinin): unable to bind aprotinin
B1: HBP mutant (G175N): HBP mutant unable to bind aprotinin, three dimensional structure unaltered (protein)
chain: T1 sequence (P20160 27-248 G201N)
- induction of bradykinin release and EC permeability (EC permeability): induces bradykinin release and increase in EC permeability
